# Patent US20100016400A1, “AZABICYCLIC MUSCARINIC RECEPTOR ANTAGONISTS” (priority 2004, published 2010)
row,melting point [°C],Compound
1,140 to 142,CNCC1C2CN(C(=O)C(O)(c3ccccc3)C3CCCCC3)CC12 (stereo not drawn)
2,110 to 113,CNCC1C2CN(C(=O)C(O)(c3ccccc3)C(F)(F)F)CC12 (stereo not drawn)
3,179.7 to 182,CNC1C2CN(C(=O)C(O)(c3ccccc3)C(F)(F)F)CC21 (stereo not drawn)
4,191 to 194,CNCC1C2CN(C(=O)C(O)(c3ccc(C)cc3)C(F)(F)F)CC12 (stereo not drawn)
5,71.3 to 72.7,CN(C)C1C2CN(C(=O)C(O)(c3ccccc3)C3CCCCC3)CC21 (stereo not drawn)
6,178 to 179.4,CNC1C2CN(C(=O)C(O)(c3ccc(C)cc3)C(F)(F)F)CC21 (stereo not drawn)
